Patent publication US20250221966A1, “RXFP1 AGONISTS” (BRISTOL-MYERS SQUIBB COMPANY, priority 2021, published 2025)
Read-outs that look alike come from different tables or passages of the source.

Molecular target: T1, human RXFP1 (Homo sapiens, UniProt Q9HBX9)
T1 construct: expressed in transfected cells
T1 sequence (Q9HBX9 1-757): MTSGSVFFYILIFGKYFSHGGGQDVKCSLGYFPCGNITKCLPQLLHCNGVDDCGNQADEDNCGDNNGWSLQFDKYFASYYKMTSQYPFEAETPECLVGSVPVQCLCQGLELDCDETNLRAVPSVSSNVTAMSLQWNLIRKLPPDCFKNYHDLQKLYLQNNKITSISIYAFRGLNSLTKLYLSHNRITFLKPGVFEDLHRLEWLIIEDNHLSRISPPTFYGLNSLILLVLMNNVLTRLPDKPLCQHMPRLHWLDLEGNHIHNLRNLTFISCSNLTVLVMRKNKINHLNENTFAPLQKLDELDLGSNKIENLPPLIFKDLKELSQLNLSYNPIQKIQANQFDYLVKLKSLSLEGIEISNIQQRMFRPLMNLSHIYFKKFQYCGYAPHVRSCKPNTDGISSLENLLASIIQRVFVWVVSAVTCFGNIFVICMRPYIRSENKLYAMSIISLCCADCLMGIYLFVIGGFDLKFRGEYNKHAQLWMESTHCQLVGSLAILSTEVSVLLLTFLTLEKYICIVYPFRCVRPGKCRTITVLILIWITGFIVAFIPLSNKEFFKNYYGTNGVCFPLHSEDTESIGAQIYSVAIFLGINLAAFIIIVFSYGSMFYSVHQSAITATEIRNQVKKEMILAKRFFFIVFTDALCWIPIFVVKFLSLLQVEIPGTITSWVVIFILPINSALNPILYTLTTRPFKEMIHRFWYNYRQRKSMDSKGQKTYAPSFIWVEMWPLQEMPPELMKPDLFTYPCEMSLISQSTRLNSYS
Assay: RXFP1 cAMP assay (hRXFP1 HEK293 cAMP assay, HTRF)
Assay type: cell-based
Summary of the method: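 Intracellular cAMP was read by HTRF, with potency fitted to a 4-parameter logistic curve. Compound exposure (0.010 nM–50 μM final, 2% DMSO) lasted 30 min at room temperature. Cells were hRXFP1-HEK293 at 1500 per well in IBMX-containing (0.5 mM) HEPES-buffered HBSS.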

[1] = HEK293 cells stably expressing human RXFP1, 30 min at room temperature, read-out: cAMP hRXFP1 HEK293 Assay EC50

| Compound | EC50 [1] | EC50 (cAMP hRXFP1 HEK293 Assay EC50, HEK293 cells stably expressing human RXFP1, 30 min at room temperature) |
| --- | --- | --- |
| COc1ccc(-c2cccnc2)cc1C(=O)N[C@H]1[C@@H](C(=O)Nc2ccc(F)c(C(F)(F)F)c2)[C@H]2CC[C@@H]1/C2=C\C(F)(F)F [Example 310, (1R,2S,3R,4R,Z)—N-(4-fluoro-3-(trifluoromethyl)phenyl)-3-(2-methoxy-5-(pyridin-3-yl)benzamido)-7-(2,2,2-trifluoroethylidene)bicyclo[2.2.1]heptane-2-carboxamide] | 162 nM | – |
| COc1ccc(-c2ccc(C(=O)O)cc2F)cc1C(=O)N[C@@H]1C2CCC(/C2=C/c2ccccc2)[C@@H]1C(=O)Nc1ccc(F)c(C(F)(F)F)c1 (stereo partly shown) [compound 169] | 44 nM | – |
| COc1ccc(-c2noc(CCO)c2CCO)cc1C(=O)N[C@H]1[C@@H](C(=O)Nc2ccc(F)c(C(F)(F)F)c2)[C@H]2CC[C@@H]1/C2=C\C1CC1 [compound 531] | 22.7 nM | – |
| COc1ccc(-c2cc(C(=O)O)ccc2F)cc1C(=O)N[C@@H]1C2CCC(/C2=C/C2CC2)[C@@H]1C(=O)Nc1ccc(C#N)c(C(F)(F)F)c1 (stereo partly shown) [compound 270] | – | 25 nM |
| COc1ccc(-c2cc(C(OC(C)=O)C(=O)O)ccc2F)cc1C(=O)N[C@@H]1C2CCC(/C2=C/c2cnoc2)[C@@H]1C(=O)Nc1ccc(F)c(C(F)(F)F)c1 (stereo partly shown) [Example 178] | 11 nM | – |
| COc1ccc(C2=NOC3COCC23)cc1C(=O)N[C@@H]1C2CCC(/C2=C/C2CC2)[C@@H]1C(=O)Nc1ccc(F)c(C(F)(F)F)c1 (stereo partly shown) [compound 418] | 170 nM | – |
| COc1ccc(C2=NOC(CCO)C2)cc1C(=O)N[C@@H]1C2CCC(/C2=C/C2CCC2)[C@@H]1C(=O)Nc1ccc(F)c(C(F)(F)F)c1 (stereo partly shown) [compound 400] | 31 nM | – |
| COc1ccc(-c2cc(C(=O)NS(=O)(=O)C3CC3)ccc2F)cc1C(=O)N[C@@H]1C2CCC(C2=C(C)C)[C@@H]1C(=O)Nc1ccc(F)c(C(F)(F)F)c1 (stereo partly shown) [compound 157] | 610 nM | – |
| C=C/C=C1\C2CCC1[C@H](C(=O)Nc1ccc(F)c(C(F)(F)F)c1)[C@@H]2NC(=O)c1cc(-c2cc(C(=O)NC)ccc2F)ccc1OC (stereo partly shown) [compound 164] | 14 nM | – |
| COc1ccc(C2=NOC(CC(=O)O)C2)cc1C(=O)N[C@@H]1C2CCC(/C2=C/C2CC2)[C@@H]1C(=O)Nc1ccc(F)c(C(F)(F)F)c1 (single isomer, unassigned) [Example 390] | 37 nM | – |
| COc1ccc(C2=NOC3COCC23)cc1C(=O)N[C@H]1[C@@H](C(=O)NC2(CO)CCCC2)[C@H]2CC[C@@H]1/C2=C\C1CC1 (stereo partly shown) [compound 651] | 269 nM | – |
| CCCC#C/C=C1\C2CCC1[C@H](C(=O)Nc1ccc(F)c(C(F)(F)F)c1)[C@@H]2NC(=O)c1cc(F)c(F)cc1OC (stereo partly shown) [compound 135] | 370 nM | – |
| COc1ccc(C2=NOC(C)(C(=O)O)C2)cc1C(=O)N[C@@H]1C2CCC(/C2=C/C2CC2)[C@@H]1C(=O)Nc1ccc(F)c(C(F)(F)F)c1 (stereo partly shown) [compound 421] | 831 nM | – |
| CC=C1C2CCC1[C@H](C(=O)Nc1ccc(F)c(C(F)(F)F)c1)[C@@H]2NC(=O)c1cc(F)c(F)cc1OC (stereo partly shown) [compound 50] | 150 nM | – |
| COc1ccc(-c2cc(-c3nnn[nH]3)ccc2F)cc1C(=O)N[C@@H]1C2CCC(C2=C(C)C)[C@@H]1C(=O)Nc1ccc(F)c(C(F)(F)F)c1 (stereo partly shown) [Example 108] | 330 nM | – |
| COc1ccc(-c2cc(C(=O)O)ccc2F)cc1C(=O)N[C@@H]1C2CCC(/C2=C/c2ccccc2)[C@@H]1C(=O)Nc1cccc(S(=O)(=O)C(F)(F)F)c1 (stereo partly shown) [compound 122] | 13 nM | – |
| COc1ccc(C2=NOC3COCC23)cc1C(=O)N[C@H]1[C@@H](C(=O)NCC2CC2)[C@H]2CC[C@@H]1/C2=C\C1CC1 (stereo partly shown) [compound 684] | 642 nM | – |
| COc1ccc(-c2cc(C(OC(=O)NC3CCC3)C(F)(F)F)ccc2F)cc1C(=O)N[C@@H]1C2CCC(/C2=C/C2CC2)[C@@H]1C(=O)Nc1ccc(F)c(C(F)(F)F)c1 (stereo partly shown) [compound 221] | 26 nM | – |
| COc1ccc(-c2cc(C(=O)O)ccc2F)cc1C(=O)N[C@@H]1C2CCC(/C2=C/C2CC2)[C@@H]1C(=O)NC(C)c1cc(F)ccc1F (stereo partly shown) [compound 307] | 958 nM | – |
| COc1ccc(C2=NOC3CC(C(N)=O)CC23)cc1C(=O)N[C@H]1[C@@H](C(=O)Nc2ccc(F)c(C(F)(F)F)c2)[C@H]2CC[C@@H]1/C2=C\C1CC1 (single isomer, unassigned) [compound 587] | 80.8 nM | – |
| COc1ccc(-c2cccc(OC(F)(F)F)c2)cc1C(=O)N[C@@H]1C2CCC(/C2=C/C2CC2)[C@@H]1C(=O)Nc1ccc(F)c(C(F)(F)F)c1 (stereo partly shown) [compound 281] | 15 nM | – |
| COc1ccc(C2=NOC3CCCC23)cc1C(=O)N[C@@H]1C2CCC(/C2=C/C2CC2)[C@@H]1C(=O)Nc1ccc(F)c(C(F)(F)F)c1 (stereo partly drawn) [Example 439, (1R,2S,3R,4R,Z)-7-(cyclopropylmethylene)-N-(4-fluoro-3-(trifluoromethyl)phenyl)-3-(2-methoxy-5-(3a,5,6,6a-tetrahydro-4H-cyclopenta[d]isoxazol-3-yl)benzamido)bicyclo[2.2.1]heptane-2-carboxamide] | 30 nM | – |
| COc1ccc(C2=NOC3CN(C(=O)OC(C)(C)C)CC23)cc1C(=O)N[C@@H]1C2CCC(/C2=C/C2CC2)[C@@H]1C(=O)Nc1ccc(F)c(C(F)(F)F)c1 (stereo partly shown) [compound 435] | 49 nM | – |
| COc1ccc(C2=NOC(C(C)O)C2)cc1C(=O)N[C@H]1[C@@H](C(=O)Nc2ccc(F)c(C(F)(F)F)c2)[C@H]2CC[C@@H]1/C2=C\C1CC1 (single isomer, unassigned) [compound 554] | 37.6 nM | – |
| COc1ccc(C2=NOC3COCC23)cc1C(=O)N[C@H]1[C@@H](C(=O)NCc2cccc(Cl)c2Cl)[C@H]2CC[C@@H]1/C2=C\C1CC1 (stereo partly shown) [compound 582] | 74.9 nM | – |
| COc1ccc(-c2cc(C(=O)O)ccc2F)cc1C(=O)N[C@@H]1C2CCC(/C2=C/c2cncnc2)[C@@H]1C(=O)Nc1ccc(F)c(C(F)(F)F)c1 (stereo partly shown) [compound 129] | 60 nM | – |

Further lines, with some results ahead:

| EC50 [1] | Compound | EC50 (cAMP hRXFP1 HEK293 Assay EC50, HEK293 cells stably expressing human RXFP1, 30 min at room temperature) |
| --- | --- | --- |
| 6.1 nM | COc1ccc(C2=NOC3COCC23)cc1C(=O)N[C@H]1[C@@H](C(=O)NC2(C#N)CCCC2)[C@H]2CC[C@@H]1/C2=C\C1CC1 (stereo partly shown) [compound 476] | – |
| 1.8 nM | COCCOc1ccc(C2=NOC3COCC23)cc1C(=O)N[C@H]1[C@@H](C(=O)Nc2ccc(F)c(C(F)(F)F)c2)[C@H]2CC[C@@H]1/C2=C\C1CC1 (single isomer, unassigned) [Example 452] | – |
| 1.6 nM | COc1ccc(-c2cccc3c2ccn3C(=O)OC(C)(C)C)cc1C(=O)N[C@H]1[C@@H](C(=O)Nc2ccc(F)c(C(F)(F)F)c2)[C@H]2CC[C@@H]1/C2=C\C1CC1 [compound 880] | – |
| 3 nM | COc1ccc(-c2cc(C(NC(=O)CC3CCOCC3)C(=O)O)ccc2F)cc1C(=O)N[C@@H]1C2CCC(/C2=C/C(F)(F)F)[C@@H]1C(=O)Nc1ccc(F)c(C(F)(F)F)c1 (stereo partly shown) [compound 242] | – |
| 1.4 nM | COc1ccc(-c2cc(C(OC(=O)NC3CCC3)C(=O)O)ccc2F)cc1C(=O)N[C@H]1[C@@H](C(=O)Nc2ccc(F)c(C(F)(F)F)c2)[C@H]2CC[C@@H]1/C2=C\C1CCCC1 (stereo partly shown) [compound 936] | – |
| 2.4 nM | COc1ccc(C2=NOC3CC(C)(CO)CC23)cc1C(=O)N[C@H]1[C@@H](C(=O)Nc2ccc(F)c(C(F)(F)F)c2)[C@H]2CC[C@@H]1/C2=C\C1CC1 (stereo partly shown) [compound 736] | – |
| 2.2 nM | COc1ccc(C2=NO[C@H]3C[C@H](CO)CN23)cc1C(=O)N[C@H]1[C@@H](C(=O)Nc2ccc(F)c(C(F)(F)F)c2)[C@H]2CC[C@@H]1/C2=C\CCC(F)(F)F [compound 818] | – |
| 2.5 nM | CN(C)c1ccc(C2=NOC3COCC23)cc1C(=O)N[C@H]1[C@@H](C(=O)Nc2ccc(F)c(C(F)(F)F)c2)[C@H]2CC[C@@H]1/C2=C\C1CC1 (stereo partly shown) [compound 460] | – |
| 3.2 nM | COc1ccc(C2=NOC3COCC23)cc1C(=O)N[C@H]1[C@@H](C(=O)Nc2ccc(F)c(C(F)(F)F)c2)[C@H]2CC[C@@H]1/C2=C\c1cscn1 (stereo partly shown) [compound 737] | – |
| 8.6 nM | COc1ccc(-c2cc(C3=NOC(C(=O)O)C3)ccc2F)cc1C(=O)N[C@H]1[C@@H](C(=O)Nc2ccc(F)c(C(F)(F)F)c2)[C@H]2CC[C@@H]1/C2=C\C1CC1 (stereo partly shown) [compound 948] | – |
| 7.6 nM | COc1ccc(-c2cc(C3=NOC4COCC34)ccc2F)cc1C(=O)N[C@H]1[C@@H](C(=O)Nc2ccc(F)c(C(F)(F)F)c2)[C@H]2CC[C@@H]1/C2=C\C1CC1 (stereo partly shown) [compound 911] | – |
| 1.9 nM | COc1ccc(C2=NOC3CC(CO)CC23)cc1C(=O)NC1C2CCC(C2=CC2CC2)C1C(=O)NCC(C)(C)C (stereo not shown) [Example 453] | – |
| 2 nM | COc1c(F)cc(-c2cc([C@H](OC(=O)NC3CCC3)C(F)(F)F)ccc2F)cc1C(=O)N[C@H]1[C@@H](C(=O)N[C@H](C)C2(C)CC2)[C@H]2CC[C@@H]1/C2=C\C1CC(F)(F)C1 [compound 970] | – |
| 6.7 nM | COc1ccc(C2=NOC(C)(CO)C2)cc1C(=O)N[C@H]1[C@@H](C(=O)Nc2ccc(F)c(C(F)(F)F)c2)[C@H]2CC[C@@H]1C2=CC1CC1 (single isomer, unassigned) [compound 480] | – |
